Measurements taken from patent US12012403B2, “Aryl sulfonyl compounds as CCR6 inhibitors” (CHEMOCENTRYX, INC., priority 2021, dated 2024).

Target: T1, human CCR6 (Homo sapiens, UniProt P51684)
T1 construct: expressed in transfected cells; host or cells: Ba/F3 cells (murine pro-B line), hCCR6-transfected, CMV promoter, sodium butyrate induction
T1 sequence (P51684 1-374): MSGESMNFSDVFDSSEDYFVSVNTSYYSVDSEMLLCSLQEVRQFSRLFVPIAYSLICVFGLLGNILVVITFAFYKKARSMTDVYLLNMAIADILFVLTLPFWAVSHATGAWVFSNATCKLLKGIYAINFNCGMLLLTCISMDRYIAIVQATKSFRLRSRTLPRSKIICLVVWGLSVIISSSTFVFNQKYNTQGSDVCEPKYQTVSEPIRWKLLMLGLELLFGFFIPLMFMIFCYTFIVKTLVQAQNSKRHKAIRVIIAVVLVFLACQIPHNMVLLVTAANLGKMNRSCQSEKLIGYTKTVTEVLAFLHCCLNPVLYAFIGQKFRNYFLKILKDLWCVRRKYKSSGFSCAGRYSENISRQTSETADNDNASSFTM
Assay: Migration (chemotaxis) assay, hCCR6-transfected Ba/F3 cells toward CCL20
Type: cell-based
Conditions: hCCR6-transfected Ba/F3 cells in human serum; recombinant human CCL20 10 nM; 37° C. 45 minutes; read-out: Potency (IC50 value in the migration assay)
Source text: A chemotaxis assay can be used to determine the efficacy of potential receptor antagonists at blocking the migration mediated through chemokine receptors, such as CCR6. This assay is routinely performed using the ChemoTX® microchamber system with a 5-μm pore-sized polycarbonate membrane. Chemokine receptor-expressing cells are required for such an assay. In this case, Ba/F3 cells (Palacios et al., Nature, 309:126, 1984) transfected with the gene for human CCR6 under control of the CMV promotor were used. To begin such an assay, hCCR6-transfected Ba/F3 cells are first grown for 24 hr in medium supplemented with sodium butyrate, which increases CCR6 transcription via the CMV promotor. The prepared Ba/F3 cells, are collected by centrifugation at 400×g at room temperature, then suspended at 4 million/ml in human serum. The compound being tested is serially diluted from a maximum final concentration of 10 μM (or an equivalent volume of its solvent (DMSO)) and is then added to the cell/serum mixture. Separately, recombinant human CCL20 (MIP-3α/LARC) at its EC50 concentration (10 nM) is placed in the lower wells of the ChemoTX® plate. The 5-μm (pore size) polycarbonate membrane is placed onto the plate, and 20 μL of the cell/compound mixture is transferred onto each well of the membrane. The plates are incubated at 37° C. for 45 minutes, after which the polycarbonate membranes are removed and 5 μl of the DNA-intercalating dye CyQUANT (Invitrogen, Carlsbad, CA) is added to the lower wells. The amount of fluorescence, corresponding to the number of migrated cells, is measured using a Spectrafluor Plus plate reader (TECAN, San Jose, CA).

SMILES | IC50 [nM]
CN(C)CCn1cc(C#N)c2cc(-c3ccc(S(=O)(=O)N4CCC(Nc5ccc(C(F)(F)F)cn5)CC4)cc3)cnc21 [Example 1.001] | 5 to 100
NCCN1C(=O)C2(CC2)c2cc(-c3ccc(S(=O)(=O)N4CCC(Nc5ccc(C(F)(F)F)cn5)CC4)cc3)cnc21 [Example 1.002] | 5 to 100
N#Cc1cn(CCNC(N)=O)c2ncc(-c3ccc(S(=O)(=O)N4CCC(Nc5ccc(C(F)(F)F)cn5)CC4)cc3)cc12 [Example 1.003] | < 5
CC(C)(C)OC(=O)NCCN1C(=O)C2(CC2)c2cc(-c3ccc(S(=O)(=O)N4CCC(Nc5ccc(C(F)(F)F)cn5)CC4)cc3)cnc21 [Example 1.004] | 5 to 100
NC(=O)c1cc(-c2ccc(S(=O)(=O)N3CCC(Nc4ccc(C(F)(F)F)cn4)CC3)cc2)cc2c1NC(=O)C2 [Example 1.005] | < 5
CN1CCC2(CC1)C(=O)Nc1ccc(-c3ccc(S(=O)(=O)N4CCC(Nc5ccc(C(F)(F)F)cn5)CC4)cc3)cc12 [Example 1.006] | 100 to 10000
O=C1Cc2ccc(-c3ccc(S(=O)(=O)N4CCC(Nc5ccc(C(F)(F)F)cn5)CC4)cc3)cc2CN1 [Example 1.007] | 5 to 100
O=C1Cc2cc(-c3ccc(S(=O)(=O)N4CCC(Nc5ccc(C(F)(F)F)cn5)CC4)cc3)cc(C(=O)O)c2N1 [Example 1.008] | 100 to 10000
CC1(C)NC(=O)c2ncc(-c3ccc(S(=O)(=O)N4CCC(Nc5ccc(C(F)(F)F)cn5)CC4)cc3)cc21 [Example 1.009] | < 5
O=C1NCc2ncc(-c3ccc(S(=O)(=O)N4CCC(Nc5ccc(C(F)(F)F)cn5)CC4)cc3)cc21 [Example 1.010] | 5 to 100
CC(=O)NCCn1cc(C#N)c2cc(-c3ccc(S(=O)(=O)N4CCC(Nc5ccc(C(F)(F)F)cn5)CC4)cc3)cnc21 [Example 1.011] | < 5
O=C1Cc2cc(-c3ccc(S(=O)(=O)N4CCC(Nc5ccc(C(F)(F)F)cn5)CC4)cc3)ccc2CN1 [Example 1.012] | < 5
N#Cc1cn(CCN)c2ncc(-c3ccc(S(=O)(=O)N4CCC(Nc5ccc(C(F)(F)F)cn5)CC4)cc3)cc12 [Example 1.013] | 5 to 100
CC(C)(C)OC(=O)NCCn1cc(C#N)c2cc(-c3ccc(S(=O)(=O)N4CCC(Nc5ccc(C(F)(F)F)cn5)CC4)cc3)cnc21 [Example 1.014] | < 5
Nc1nc(=O)c2cc(-c3ccc(S(=O)(=O)N4CCC(Nc5ccc(C(F)(F)F)cn5)CC4)cc3)ccc2[nH]1 [Example 1.015] | < 5
Nc1nnc2ccc(-c3ccc(S(=O)(=O)N4CCC(Nc5ccc(C(F)(F)F)cn5)CC4)cc3)cn12 [Example 1.016] | < 5
Nc1n[nH]c2ncc(-c3ccc(S(=O)(=O)N4CCC(Nc5ccc(C(F)(F)F)cn5)CC4)cc3)nc12 [Example 1.017] | 5 to 100
Cc1cc(S(=O)(=O)N2CCC(Nc3ccc(C(F)(F)F)cn3)CC2)ccc1-c1ccc2c(c1)CC(=O)N2 [Example 1.018] | 100 to 10000
CC1(C)Oc2cc(-c3ccc(S(=O)(=O)N4CCC(Nc5ccc(C(F)(F)F)cn5)CC4)cc3)ccc2NC1=O [Example 1.019] | 5 to 100
O=C1N(CCO)c2ncc(-c3ccc(S(=O)(=O)N4CCC(Nc5ccc(C(F)(F)F)cn5)CC4)cc3)cc2C12CCOCC2 [Example 1.020] | 5 to 100
O=C1c2ccc(-c3ccc(S(=O)(=O)N4CCC(Nc5ccc(C(F)(F)F)cn5)CC4)cc3)cc2CN1CCO [Example 1.021] | 5 to 100
O=C1Cc2ncc(-c3ccc(S(=O)(=O)N4CCC(Nc5ccc(C(F)(F)F)cn5)CC4)cc3)cc2N1 [Example 1.022] | 5 to 100
O=C1Nc2ccc(-c3ccc(S(=O)(=O)N4CCC(Nc5ccc(C(F)(F)F)cn5)CC4)cc3)cc2C12CCNCC2 [Example 1.028] | 5 to 100

Next, values leading:

IC50 [nM] | SMILES
100 to 10000 | O=C1NC[C@@H]2CCN(c3ccc(S(=O)(=O)N4CCC(Nc5ccc(C(F)(F)F)cn5)CC4)cc3)C[C@H]12 (racemic) [Example 1.169]
100 to 10000 | O=C1CO[C@@H]2CCN(c3ccc(S(=O)(=O)N4CCC(Nc5ccc(C(F)(F)F)cn5)CC4)cc3)C[C@@H]2N1 (racemic) [Example 1.170]
100 to 10000 | O=S(=O)(c1ccc(N2CCN3C[C@H](O)C[C@H]3C2)cc1)N1CCC(Nc2ccc(C(F)(F)F)cn2)CC1 (racemic) [Example 1.178]
< 5 | Cc1c(-c2ccc(S(=O)(=O)N3CCC(Nc4ccc(C(F)(F)F)cn4)CC3)cc2)cnc2[nH]ccc12 [Example 1.023]
< 5 | Cc1nc2[nH]ccc2cc1-c1ccc(S(=O)(=O)N2CCC(Nc3ccc(C(F)(F)F)cn3)CC2)cc1 [Example 1.024]
5 to 100 | NC(=O)N1CCC2(CC1)C(=O)Nc1ccc(-c3ccc(S(=O)(=O)N4CCC(Nc5ccc(C(F)(F)F)cn5)CC4)cc3)cc12 [Example 1.025]
5 to 100 | CC(=O)N1CCC2(CC1)C(=O)Nc1ccc(-c3ccc(S(=O)(=O)N4CCC(Nc5ccc(C(F)(F)F)cn5)CC4)cc3)cc12 [Example 1.026]
< 5 | COC(=O)c1cc(-c2ccc(S(=O)(=O)N3CCC(Nc4ccc(C(F)(F)F)cn4)CC3)cc2)cc2c1NC(=O)C2 [Example 1.027]
< 5 | N#Cc1cn(CCO)c2ncc(-c3ccc(S(=O)(=O)N4CCC(Nc5ccc(C(F)(F)F)cn5)CC4)cc3)cc12 [Example 1.029]
< 5 | O=S(=O)(c1ccc(-c2cnc3[nH]ccc3c2F)cc1)N1CCC(Nc2ccc(C(F)(F)F)cn2)CC1 [Example 1.030]
5 to 100 | CC1(C)Oc2ccc(-c3ccc(S(=O)(=O)N4CCC(Nc5ccc(C(F)(F)F)cn5)CC4)cc3)cc2NC1=O [Example 1.031]
100 to 10000 | O=S(=O)(c1ccc(-c2ccc3c(c2)OCCO3)cc1)N1CCC(Nc2ccc(C(F)(F)F)cn2)CC1 [Example 1.032]
< 5 | O=C1c2cc(-c3ccc(S(=O)(=O)N4CCC(Nc5ccc(C(F)(F)F)cn5)CC4)cc3)ccc2CN1CCO [Example 1.033]
5 to 100 | O=S(=O)(c1ccc(-c2ccc3c(c2)C2(CCOCC2)CN3)cc1)N1CCC(Nc2ccc(C(F)(F)F)cn2)CC1 [Example 1.034]
5 to 100 | O=S(=O)(c1ccc(-c2ccc3c(c2)NCCO3)cc1)N1CCC(Nc2ccc(C(F)(F)F)cn2)CC1 [Example 1.035]
< 5 | O=C1Nc2ccc(-c3ccc(S(=O)(=O)N4CCC(Nc5ccc(C(F)(F)F)cn5)CC4)cc3)cc2C12CCOCC2 [Example 1.036]
5 to 100 | CC(C)(C)[Si](C)(C)OCCN1Cc2ccc(-c3ccc(S(=O)(=O)N4CCC(Nc5ccc(C(F)(F)F)cn5)CC4)cc3)cc2C1=O [Example 1.038]
< 5 | N#Cc1cn(CC(N)=O)c2ncc(-c3ccc(S(=O)(=O)N4CCC(Nc5ccc(C(F)(F)F)cn5)CC4)cc3)cc12 [Example 1.039]
5 to 100 | NC(=O)CN1Cc2ccc(-c3ccc(S(=O)(=O)N4CCC(Nc5ccc(C(F)(F)F)cn5)CC4)cc3)cc2C1=O [Example 1.040]
5 to 100 | O=c1[nH]c2ccc(-c3ccc(S(=O)(=O)N4CCC(Nc5ccc(C(F)(F)F)cn5)CC4)cc3)cc2n1C1COC1 [Example 1.041]
5 to 100 | O=S(=O)(c1ccc(-c2cc3cc[nH]c3nc2F)cc1)N1CCC(Nc2ccc(C(F)(F)F)cn2)CC1 [Example 1.042]
100 to 10000 | O=C1Cc2cc(-c3ccc(S(=O)(=O)N4CCC(Nc5ccc(C(F)(F)F)cn5)CC4)cc3)ncc2N1 [Example 1.043]
5 to 100 | CC(C)(O)OC(=O)N1CCC2(CC1)C(=O)Nc1ccc(-c3ccc(S(=O)(=O)N4CCC(Nc5ccc(C(F)(F)F)cn5)CC4)cc3)cc12 [Example 1.044]
5 to 100 | COc1cc(-c2ccc(S(=O)(=O)N3CCC(Nc4ccc(C(F)(F)F)cn4)CC3)cc2)cc2c1NC(=O)C2 [Example 1.045]
< 5 | Cn1nc(N)c2cc(-c3ccc(S(=O)(=O)N4CCC(Nc5ccc(C(F)(F)F)cn5)CC4)cc3)ccc21 [Example 1.046]
5 to 100 | O=C1CCc2ccc(-c3ccc(S(=O)(=O)N4CCC(Nc5ccc(C(F)(F)F)cn5)CC4)cc3)cc2N1 [Example 1.047]
5 to 100 | O=C1NCCc2nc(-c3ccc(S(=O)(=O)N4CCC(Nc5ccc(C(F)(F)F)cn5)CC4)cc3)sc21 [Example 1.048]
< 5 | CNc1n[nH]c2ncc(-c3ccc(S(=O)(=O)N4CCC(Nc5ccc(C(F)(F)F)cn5)CC4)cc3)cc12 [Example 1.049]
5 to 100 | O=C1Cc2cc(-c3ccc(S(=O)(=O)N4CCC(Nc5ccc(C(F)(F)F)cc5)CC4)cc3)ccc2N1 [Example 1.050]
< 5 | O=C1Nc2ccc(-c3ccc(S(=O)(=O)N4CCC(Nc5ccc(C(F)(F)F)cn5)CC4)cc3)cc2C12CC2 [Example 1.051]
